# Values quoted from earlier work as cited in patent publication US20180280562A1, “Fibrous Structures Comprising Sensates” (The Procter & Gamble Company, priority 2017, published 2018).
# Conditions: concentration where the cooling effect could be clearly recognized
row,SMILES,cooling threshold
1,CC(C)[C@@H]1CC[C@@H](C)C[C@@H]1O [1-neomenthol],"about 3,000 ppb"
2,CC(C)[C@@H]1CC[C@@H](C)C[C@H]1O [L-menthol],about 800 ppb
3,CC(C)[C@@H]1CC[C@@H](C)C[C@@H]1O [d-neomenthol],"about 25,000 ppb"
